Activity calls are given as the source filed them. No cut-off for these calls is given here.
Legend:
Cytochrome P450 2C9 = Cytochrome P450 2C9 (Homo sapiens, UniProt P11712); experiment: Inhibition of CYP2C9 (unknown origin); type: ADME
Mus musculus [1] = experiment: Antiinflammatory activity in DBA/1J mouse model of collagen-induced arthritis assessed as reduction in plasma IL-6 level at 10 mg/kg, po dosed twice daily for 21 days (reference value: 80 +/- 6 pg/ml); type: functional; conditions: time 21 day
Mus musculus [2] = experiment: Antiinflammatory activity in DBA/1J mouse model of collagen-induced arthritis assessed as reduction in histological score at 10 mg/kg, po dosed twice daily for 21 days; type: functional; conditions: 504 h, time 21 day
[3] = AUC in dog at 2 mg/kg, po; type: ADME, organism-based, Canis lupus familiaris; set-up: dose 2 mg/kg; conditions: in vivo
[4] = Oral bioavailability in cynomolgus monkey at 2 mg/kg; type: ADME, organism-based, Macaca fascicularis; conditions: in vivo
[5] = biological target: T1, Nuclear receptor ROR-beta (Homo sapiens, UniProt Q92753); experiment: Inhibition of RORbeta (unknown origin)
T1 sequence (Q92753 whole entry): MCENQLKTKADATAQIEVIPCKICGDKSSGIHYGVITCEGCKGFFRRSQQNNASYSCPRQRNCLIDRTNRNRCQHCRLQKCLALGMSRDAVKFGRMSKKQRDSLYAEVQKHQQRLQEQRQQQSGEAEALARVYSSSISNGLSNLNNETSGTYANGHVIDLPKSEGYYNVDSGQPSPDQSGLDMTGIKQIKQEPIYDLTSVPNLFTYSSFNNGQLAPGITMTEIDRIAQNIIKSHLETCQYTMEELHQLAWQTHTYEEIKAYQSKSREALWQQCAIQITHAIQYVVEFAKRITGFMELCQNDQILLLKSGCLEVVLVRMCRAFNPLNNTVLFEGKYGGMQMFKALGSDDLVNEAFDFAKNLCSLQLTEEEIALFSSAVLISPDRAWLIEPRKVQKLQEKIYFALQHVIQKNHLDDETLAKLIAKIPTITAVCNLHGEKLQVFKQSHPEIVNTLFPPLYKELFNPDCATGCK

[6] = Decrease in IL-17a gene expression in C57BL/6 mouse model of IL-23 induced acanthosis model of psoriasis at 5 mg/kg, po BID for 10 days by RT-PCR analysis; type: functional; conditions: C57BL/6, po, 240 h, time 10 day
[7] = Clearance in dog at 1 mg/kg, iv; type: ADME, organism-based, Canis lupus familiaris; conditions: in vivo
[8] = Half life in cynomolgus monkey at 1 mg/kg, iv; type: ADME, organism-based, Macaca fascicularis; conditions: in vivo
[9] = Metabolic stability in human liver microsomes assessed as compound remaining after 10 mins; type: ADME, Microsome; conditions: read-out: Stabilty
Mus musculus [10] = experiment: Antiinflammatory activity in DBA/1J mouse model of collagen-induced arthritis assessed as reduction in histological score at 5 mg/kg, po dosed twice daily for 21 days; type: functional; conditions: 504 h, time 21 day
[11] = biological target: T2, Oxysterols receptor LXR-alpha (Homo sapiens, UniProt Q13133); experiment: Inhibition of LXRalpha (unknown origin)
T2 sequence (Q13133 whole entry): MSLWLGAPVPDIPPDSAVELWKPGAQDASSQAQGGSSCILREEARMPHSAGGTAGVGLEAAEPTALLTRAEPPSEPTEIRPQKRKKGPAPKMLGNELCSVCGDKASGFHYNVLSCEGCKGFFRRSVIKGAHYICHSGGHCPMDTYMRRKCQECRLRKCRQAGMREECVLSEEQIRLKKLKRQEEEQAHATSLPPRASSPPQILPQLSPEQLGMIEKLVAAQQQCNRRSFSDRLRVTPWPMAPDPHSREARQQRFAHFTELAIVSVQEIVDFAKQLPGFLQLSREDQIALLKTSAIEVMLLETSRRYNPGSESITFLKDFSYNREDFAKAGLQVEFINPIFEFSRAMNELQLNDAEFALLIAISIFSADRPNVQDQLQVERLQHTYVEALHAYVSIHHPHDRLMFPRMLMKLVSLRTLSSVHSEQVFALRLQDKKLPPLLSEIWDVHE

Mus musculus [12] = experiment: Antiinflammatory activity in DBA/1J mouse model of collagen-induced arthritis assessed as reduction in histological score at 20 mg/kg, po dosed twice daily for 21 days; type: functional; conditions: 504 h, time 21 day
[13] = Clearance in cynomolgus monkey at 1 mg/kg, iv; type: ADME, organism-based, Macaca fascicularis; conditions: in vivo
[14] = Cmax in Sprague-Dawley rat at 4 mg/kg, po; type: ADME, organism-based; set-up: route oral, dose 4 mg/kg; conditions: in vivo
Mus musculus [15] = experiment: Suppression of ear thickness in C57BL/6 mouse model of IL-23 induced acanthosis model of psoriasis assessed as AUC of %change in ear thickness at 5 mg/kg, po BID for 10 days measured every other day; type: functional; conditions: time 10 day
Mus musculus [16] = experiment: Antiinflammatory activity in DBA/1J mouse model of collagen-induced arthritis assessed as reduction in Anti-CII Ab level at 5 to 20 mg/kg, po dosed twice daily for 21 days; type: functional, organism-based; conditions: dose 5-20 mg/kg, time 21.0 day
[17] = Clearance in Balb/c mouse at 2 mg/kg, iv; type: ADME, organism-based; conditions: in vivo
[18] = AUC in Balb/c mouse at 2 mg/kg, iv; type: ADME, organism-based; set-up: dose 2 mg/kg; conditions: in vivo
[19] = Clearance in Sprague-Dawley rat at 2 mg/kg, iv; type: ADME, organism-based; conditions: in vivo
[20] = Apparent permeability across apical to basolateral membrane in human Caco2 cells; type: ADME, cell-based; conditions: Caco-2
Mus musculus [21] = experiment: Antiinflammatory activity in DBA/1J mouse model of collagen-induced arthritis assessed as reduction in clinical score at 20 mg/kg, po dosed twice daily for 21 days measured on day 51; type: functional; conditions: 504 h, time 21 day
[22] = Decrease in IL-6 gene expression in C57BL/6 mouse model of IL-23 induced acanthosis model of psoriasis at 5 mg/kg, po BID for 10 days by RT-PCR analysis; type: functional; conditions: C57BL/6, po, 240 h, time 10 day
[23] = AUC in Sprague-Dawley rat at 4 mg/kg, po; type: ADME, organism-based; set-up: dose 4 mg/kg; conditions: in vivo
[24] = biological target: T3, Nuclear receptor subfamily 1 group I member 2 (Homo sapiens, UniProt O75469); experiment: Inhibition of PXR (unknown origin)
T3 sequence (O75469 whole entry): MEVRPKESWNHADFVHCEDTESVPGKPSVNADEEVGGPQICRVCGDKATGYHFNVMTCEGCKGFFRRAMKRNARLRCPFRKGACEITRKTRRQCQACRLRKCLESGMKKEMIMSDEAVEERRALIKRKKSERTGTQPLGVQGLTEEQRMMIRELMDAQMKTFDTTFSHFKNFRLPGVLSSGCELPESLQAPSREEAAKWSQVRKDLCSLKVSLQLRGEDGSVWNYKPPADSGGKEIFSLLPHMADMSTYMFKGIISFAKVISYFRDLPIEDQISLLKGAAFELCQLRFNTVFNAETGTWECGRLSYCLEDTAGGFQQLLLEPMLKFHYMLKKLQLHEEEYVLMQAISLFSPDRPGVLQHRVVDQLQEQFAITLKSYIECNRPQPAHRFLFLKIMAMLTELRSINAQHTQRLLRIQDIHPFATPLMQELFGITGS

Mus musculus [25] = experiment: Antiinflammatory activity in DBA/1J mouse model of collagen-induced arthritis assessed as reduction in clinical score at 10 mg/kg, po dosed twice daily for 21 days measured on day 51; type: functional; conditions: 504 h, time 21 day
Cytochrome P450 2C19 = Cytochrome P450 2C19 (Homo sapiens, UniProt P33261); experiment: Inhibition of CYP2C19 (unknown origin); type: ADME
Chain of Cytochrome P450 2C19 (P33261 whole entry): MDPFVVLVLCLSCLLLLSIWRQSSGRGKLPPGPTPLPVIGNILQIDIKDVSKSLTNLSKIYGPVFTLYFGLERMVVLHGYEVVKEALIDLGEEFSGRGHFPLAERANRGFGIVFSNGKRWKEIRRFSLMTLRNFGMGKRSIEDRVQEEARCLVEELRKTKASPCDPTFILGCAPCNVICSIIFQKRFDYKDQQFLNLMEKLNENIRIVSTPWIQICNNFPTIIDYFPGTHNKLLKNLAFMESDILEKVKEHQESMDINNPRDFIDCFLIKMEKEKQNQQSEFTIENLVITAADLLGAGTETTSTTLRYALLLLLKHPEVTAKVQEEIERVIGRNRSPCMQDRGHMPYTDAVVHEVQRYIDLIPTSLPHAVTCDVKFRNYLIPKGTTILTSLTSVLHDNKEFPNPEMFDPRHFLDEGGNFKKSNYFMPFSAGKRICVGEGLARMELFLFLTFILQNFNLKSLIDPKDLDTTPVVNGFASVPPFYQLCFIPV

[26] = Decrease in LCN2 gene expression in C57BL/6 mouse model of IL-23 induced acanthosis model of psoriasis at 20 mg/kg, po BID for 10 days by RT-PCR analysis; type: functional; conditions: C57BL/6, po, 240 h, time 10 day

Chain of Cytochrome P450 2C9 (P11712 whole entry): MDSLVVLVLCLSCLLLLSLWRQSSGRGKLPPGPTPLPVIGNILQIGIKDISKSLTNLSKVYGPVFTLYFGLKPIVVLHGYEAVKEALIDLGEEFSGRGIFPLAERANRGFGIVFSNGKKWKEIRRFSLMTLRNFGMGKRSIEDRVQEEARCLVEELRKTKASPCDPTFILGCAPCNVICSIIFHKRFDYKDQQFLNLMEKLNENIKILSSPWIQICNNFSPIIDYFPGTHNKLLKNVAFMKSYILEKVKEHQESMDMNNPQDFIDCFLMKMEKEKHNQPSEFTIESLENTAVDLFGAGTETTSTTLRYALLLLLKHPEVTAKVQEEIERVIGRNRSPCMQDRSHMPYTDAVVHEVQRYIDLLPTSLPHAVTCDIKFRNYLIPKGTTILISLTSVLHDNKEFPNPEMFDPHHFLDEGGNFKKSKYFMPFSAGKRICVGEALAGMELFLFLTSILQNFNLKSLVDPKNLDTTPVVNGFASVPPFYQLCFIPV

For `C[C@@](O)(CS(C)(=O)=O)C(=O)N[C@@H]1CC[C@@]2(S(=O)(=O)c3ccc(F)cc3)c3ccc(C(F)(C(F)(F)F)C(F)(F)F)nc3CC[C@@H]12`, the IC50 (Cytochrome P450 2C9) was > 20 µM, the Activity (Mus musculus [1]) was 19 pg/mL and the inhibition in vivo at 10 mg/kg (Mus musculus [2]) was 60%. The AUC [3] was 163 µM·h, the bioavailability [4] was 73% and the EC50 [5] was > 10 µM. It also gave an inhibition in vivo at 5 mg/kg [6] of 57.5%, a clearance [7] of 0.22 mL/min/kg and a half-life [8] of 12 h. The remaining at 10 min [9] was 89%, the inhibition in vivo at 5 mg/kg (Mus musculus [10]) was 59% and the EC50 [11] was > 10 µM. For the same compound, the inhibition in vivo at 20 mg/kg (Mus musculus [12]) was 55%, the clearance [13] was 2.8 mL/min/kg and the Cmax [14] was 1600 nM. For the same compound, the Activity (Mus musculus [15]) was 34.4%, the Activity (Mus musculus [16]) was “Active” and the clearance [17] was 2.1 mL/min/kg. The AUC [18] was 22.7 µM·h, the clearance [19] was 1.9 mL/min/kg and the Papp A→B [20] was 11 ×10⁻⁶ cm/s. It also gave an inhibition in vivo at 20 mg/kg (Mus musculus [21]) of 78%, an inhibition in vivo at 5 mg/kg [22] of 55.8% and an AUC [23] of 44.9 µM·h. For the same compound, the EC50 [24] was > 10 µM, the inhibition in vivo at 10 mg/kg (Mus musculus [25]) was 64% and the IC50 (Cytochrome P450 2C19) was 19 µM. It also gave an inhibition in vivo at 20 mg/kg [26] of 82.9%.
